Laboratory results as given in US5227485A, “Pyrazolo[3,4-d]pyrimidines with adenosine-like binding affinities” (Griffith University, priority 1990, dated 1993).

Legend:
benzodiazepine receptors = conditions: cited from earlier work
mice = conditions: oral or intraperitoneal; cited from earlier work
[1] = in vivo; rats (printed "rates"); cited from earlier work
mouse spinal cord = conditions: at doses in which neuromuscular junction transmission was unaltered; cited from earlier work
adenosine deaminase = conditions: cited from earlier work
[2] = system: adenosine uptake system (nucleoside transporter); conditions: cited from earlier work
A1 site = conditions: cited from earlier work
A2 site = conditions: cited from earlier work
cerebellar cyclic GMP = conditions: in vivo; cited from earlier work
A1 receptor = molecular target: T1, A1 receptor (Rattus norvegicus, UniProt P25099); assay: IC50 at the A1 receptor (^3 H-PIA); format: binding; conditions: for IC50: ^3 H-PIA
T1 sequence (P25099 1-326): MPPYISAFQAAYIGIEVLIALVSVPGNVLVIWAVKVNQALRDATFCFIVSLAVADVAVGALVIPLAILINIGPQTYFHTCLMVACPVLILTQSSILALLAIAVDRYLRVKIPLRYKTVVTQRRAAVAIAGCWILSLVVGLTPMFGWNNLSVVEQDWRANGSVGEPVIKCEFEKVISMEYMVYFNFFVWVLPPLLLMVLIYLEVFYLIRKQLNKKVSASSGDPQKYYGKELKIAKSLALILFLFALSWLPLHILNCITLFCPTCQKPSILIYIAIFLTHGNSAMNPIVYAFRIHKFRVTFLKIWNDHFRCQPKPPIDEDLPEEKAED

A2 receptor = A2 receptor (Rattus norvegicus, UniProt P30543); assay: IC50 at the A2 receptor (^3 H-CGS21680); format: binding
A2 receptor, sequence (P30543 whole entry): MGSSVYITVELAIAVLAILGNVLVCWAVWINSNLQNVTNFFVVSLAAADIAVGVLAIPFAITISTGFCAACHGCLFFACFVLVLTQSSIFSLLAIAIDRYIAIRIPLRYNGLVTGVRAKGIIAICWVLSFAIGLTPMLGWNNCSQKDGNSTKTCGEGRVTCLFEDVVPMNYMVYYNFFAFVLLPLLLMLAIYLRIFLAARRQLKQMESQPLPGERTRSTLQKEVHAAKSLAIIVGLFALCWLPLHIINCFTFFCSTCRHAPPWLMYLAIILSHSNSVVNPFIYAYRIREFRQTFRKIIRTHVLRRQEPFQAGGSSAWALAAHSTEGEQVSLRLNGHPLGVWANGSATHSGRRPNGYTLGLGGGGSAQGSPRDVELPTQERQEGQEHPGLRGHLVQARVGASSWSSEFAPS

A2 surface receptors = conditions: cited from earlier work; for agonism at the A2 site: in words
A1 surface receptors = conditions: both sites, in words; cited from earlier work
rats = conditions: NECA vs R-PIA; cited from earlier work
[3] = system: noradrenaline-contracted guinea pig aorta; conditions: by interactions with A2 receptors; cited from earlier work
[4] = system: coronary vascular smooth muscle; conditions: cited from earlier work
animals = conditions: cited from earlier work
[5] = in vivo; cited from earlier work
[6] = because of antagonism of the effects of extracellular adenosine; cited from earlier work

Cn1c(N)c2ncn([C@@H]3O[C@H](CO)[C@@H](O)[C@H]3O)c2nc1=O [1-methylisoguanosine]
Ki (benzodiazepine receptors; benzodiazepine receptors, read-out: Ki vs ^3 H-diazepam binding): ~17000 nM | potency at benzodiazepine receptors relative to inosine and hypoxanthine (benzodiazepine receptors; comparison in words): several hundred fold more potent than inosine and hypoxanthine | muscle relaxation and hypothermia (mice): potent muscle relaxation and hypothermine | effect on blood pressure and heart rate [1]: reduced blood pressure and heart rate | polysynaptic responses in the mouse spinal cord (mouse spinal cord): blocked polysynaptic responses | degradation by adenosine deaminase (adenosine deaminase): resistant to degradation by adenosine deaminase | substrate for, or inhibitor of, the adenosine uptake system [2]: poor substrate for, or inhibitor of, the adenosine uptake system | interaction with extracellular adenosine receptors, A1 site (A1 site): can interact with extracellular adenosine receptors | interaction with extracellular adenosine receptors, A2 site (A2 site): can interact with extracellular adenosine receptors | cerebellar levels of cyclic GMP (cerebellar cyclic GMP): decreases cerebellar levels of cyclic GMP

CCCCSc1cc(Nc2ccccc2)nc(SC(C)C(N)=O)n1 (centres unmarked) [Compound 1, (2-n-butylthio)-4-(N-phenyl)-6-propionamidyl thiopyrimidine]
affinity for the A1 receptor (A1 receptor; in words): moderate affinity

CCC(Sc1nc(SC(CC)C(N)=O)c2cnn(-c3ccccc3)c2n1)C(N)=O (stereo not drawn) [Compound 4, 4,6-bis-α-carbamoylpropylthio-1-phenylpyrazolo[3,4-d]pyrimidine]
IC50 (A1 receptor): 108 nM | potency of butanamide side chain versus propionamide moiety in FIG. 3 (A1 receptor; comparison in words): increased potency over the proprionamide moiety

CCC(Sc1nc2c(cnn2-c2ccccc2)c(=S)[nH]1)C(N)=O (stereo not drawn) [Compound 5, 6-α-carbamoylpropylthio-4-mercapto-1-phenylpyrazolo[3,4-d]pyrimidine]
IC50 (A1 receptor): 492 nM

CCNC(=O)C(C)Sc1nc(SC(C)C(=O)NCC)c2cnn(-c3ccccc3)c2n1 (stereo not drawn) [Compound 6, 4,6-Bis-α-N-ethylcarbamoylethylthio-1-phenylpyrazolo[3,4-d]pyrimidine]
IC50 (A1 receptor): 580 nM | IC50 (A2 receptor): 570 nM

CCNC(=O)C(C)Sc1nc(S)c2cnn(-c3ccccc3)c2n1 (stereo not drawn) [Compound 7, 6-α-N-Ethylcarbamoylethylthio-4-mercapto-1-phenylpyrazolo[3,4-d]pyrimidine]
IC50 (A1 receptor): 490 nM | IC50 (A2 receptor): 540 nM

CCNC(=O)C(C)Sc1nc(N)c2cnn(-c3ccccc3)c2n1 (centres unmarked) [Compound 8]
IC50 (A1 receptor): 17 nM

CCNC(=O)[C@H]1O[C@@H](n2cnc3c(N)ncnc32)[C@H](O)[C@@H]1O [NECA, 5'-N-ethyl carboxamidoadenosine]
agonist potency at A2 surface receptors (A2 surface receptors; adenylate cyclase systems, NECA vs R-PIA): more potent agonist at A2 surface receptors than is R-N^6 -phenylisopropyl adenosine (R-PIA) | agonism at the A2 site (A2 surface receptors): non-selective and are good agonists at both sites | agonism at the A1 site (A1 surface receptors): non-selective and are good agonists at both sites | anticonvulsant activity in reductions of amygdaloid-kindled seizures (rats): slightly more anticonvulsant activity than R-PIA

C[C@H](Cc1ccccc1)Nc1ncnc2c1ncn2[C@@H]1O[C@H](CO)[C@@H](O)[C@H]1O [PIA]
agonism at the A2 site (A2 surface receptors): reduced agonistic activity

Nc1ncnc2c1ncn2[C@@H]1O[C@H](CO)[C@@H](O)[C@H]1O [adenosine]
agonism at the A2 site (A2 surface receptors): non-selective and are good agonists at both sites | agonism at the A1 site (A1 surface receptors): non-selective and are good agonists at both sites | relaxation of noradrenaline-contracted guinea pig aorta [3]: relaxed | relaxation of coronary vascular smooth muscle [4]: causes relaxation | effects when given to animals (animals; intraperitoneal, alone): minimal or no effects | effects in the presence of an adenosine uptake inhibitor and/or adenosine deaminase inhibitor (animals; with adenosine uptake inhibitor and/or adenosine deaminase inhibitor): can cause muscle relaxation and hypothermia | activity of adenosine in words [5]: profound hypotensive, antispasmodic, sedative and vasodilatory activity

Cn1c(=O)c2c(ncn2C)n(C)c1=O [caffeine]
central stimulant action [6]: central stimulant action

CN1C(=O)CN=C(c2ccccc2)c2cc(Cl)ccc21 [diazepam]
Kd (benzodiazepine receptors; radioligand, read-out: Kd of ^3 H-diazepam binding): 11 nM | cerebellar levels of cyclic GMP (cerebellar cyclic GMP): decreases cerebellar levels of cyclic GMP

Cn1c(=O)c2[nH]cnc2n(C)c1=O [theophylline]
central stimulant action [6]: central stimulant action
